Results reported in ChEMBL document CHEMBL1201862, “PubChem BioAssay data set” (2004).
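Five compound concentrations were applied to cells in 96-well plates for 48 hours; endpoints were derived by simple linear interpolation of the resulting dose-response curve. GI50: concentration for 50% inhibition of growth.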 Calls of active or inactive are those of the source. Rule as the data show it: active = GI50 up to about 1.1 µM and inactive = higher.

What was measured:
Assay in all cases: NCI-60 cell line screen, 48 h
[1] = test system: HCC 2998
[2] = test system: SF-295
[3] = test system: HOP-92
[4] = test system: Malme-3M
[5] = test system: OVCAR-8
[6] = test system: NCI-H522
[7] = test system: COLO 205
[8] = test system: HCT-116
[9] = test system: 786-0
[10] = test system: A498
[11] = test system: BT-549
[12] = test system: HT-29
[13] = test system: OVCAR-5
[14] = test system: K562
[15] = test system: ACHN
[16] = test system: MCF7
[17] = test system: KM12
[18] = test system: NCI/ADR-RES
[19] = test system: U-251
[20] = test system: SF-268
[21] = test system: UACC-62
[22] = test system: SNB-19
[23] = test system: CCRF-CEM
[24] = test system: RPMI-8226
[25] = test system: SK-MEL-28
[26] = test system: MDA-MB-231
[27] = test system: UACC-257
[28] = test system: LOX IMVI
[29] = test system: SN12C
[30] = test system: RXF 393
[31] = test system: Hs-578T
[32] = test system: MDA-N
[33] = test system: OVCAR-4
[34] = test system: IGROV-1
[35] = test system: HOP-62
[36] = test system: OVCAR-3
[37] = test system: SR
[38] = test system: SK-OV-3
[39] = test system: NCI-H460
[40] = test system: SF-539
[41] = test system: SK-MEL-5
[42] = test system: HL-60
[43] = test system: UO-31
[44] = test system: HCT-15
[45] = test system: MDA-MB-435
[46] = test system: EKVX
[47] = test system: NCI-H226
[48] = test system: NCI-H23
[49] = test system: T47D
[50] = test system: MOLT-4
[51] = test system: TK-10
[52] = test system: A549
[53] = test system: DU-145
[54] = test system: PC-3
[55] = test system: M14
[56] = test system: SW-620
[57] = test system: SK-MEL-2
[58] = test system: SNB-75
[59] = test system: CAKI-1

With `CC1(C)CCCC2OC2CCC(C)(C)C1=O` (stereo not drawn) the GI50 [1] was > 100 µM (inactive), the GI50 [2] was > 100 µM (inactive) and the GI50 [3] was > 100 µM (inactive). The GI50 [4] was > 100 µM (inactive), the GI50 [5] was > 100 µM (inactive) and the GI50 [6] was > 100 µM (inactive). The GI50 [7] was > 100 µM (inactive), the GI50 [8] was > 100 µM (inactive) and the GI50 [9] was > 100 µM (inactive). For the same compound, the GI50 [10] was > 100 µM (inactive), the GI50 [11] was > 100 µM (inactive) and the GI50 [12] was > 100 µM (inactive). For the same compound, the GI50 [13] was > 100 µM (inactive), the GI50 [14] was > 100 µM (inactive) and the GI50 [15] was > 100 µM (inactive). The GI50 [16] was > 100 µM (inactive), the GI50 [17] was > 100 µM (inactive) and the GI50 [18] was > 100 µM (inactive). For the same compound, the GI50 [19] was > 100 µM (inactive), the GI50 [20] was > 100 µM (inactive) and the GI50 [21] was > 100 µM (inactive). The GI50 [22] was > 100 µM (inactive), the GI50 [23] was > 100 µM (inactive) and the GI50 [24] was > 100 µM (inactive). For the same compound, the GI50 [25] was > 100 µM (inactive), the GI50 [26] was > 100 µM (inactive) and the GI50 [27] was > 100 µM (inactive). The GI50 [28] was > 100 µM (inactive), the GI50 [29] was > 100 µM (inactive) and the GI50 [30] was > 100 µM (inactive). For the same compound, the GI50 [31] was > 100 µM (inactive), the GI50 [32] was > 100 µM (inactive) and the GI50 [33] was > 100 µM (inactive). For the same compound, the GI50 [34] was > 100 µM (inactive), the GI50 [35] was > 100 µM (inactive) and the GI50 [36] was > 100 µM (inactive). The GI50 [37] was > 100 µM (inactive), the GI50 [38] was > 100 µM (inactive) and the GI50 [39] was > 100 µM (inactive). For the same compound, the GI50 [40] was > 100 µM (inactive), the GI50 [41] was > 100 µM (inactive) and the GI50 [42] was > 100 µM (inactive). The GI50 [43] was > 100 µM (inactive), the GI50 [44] was > 100 µM and the GI50 [45] was > 100 µM (inactive). For the same compound, the GI50 [46] was > 100 µM (inactive), the GI50 [47] was > 100 µM (inactive) and the GI50 [48] was > 100 µM (inactive). For the same compound, the GI50 [49] was > 100 µM (inactive), the GI50 [50] was > 100 µM (inactive) and the GI50 [51] was > 100 µM (inactive). The GI50 [52] was > 100 µM (inactive), the GI50 [53] was > 100 µM (inactive) and the GI50 [54] was > 100 µM (inactive). The GI50 [55] was > 100 µM (inactive), the GI50 [56] was > 100 µM (inactive) and the GI50 [57] was > 100 µM (inactive). The GI50 [58] was > 100 µM (inactive) and the GI50 [59] was > 100 µM (inactive).
In the case of `COc1cccc2c(Nc3ccc(S(=O)(=O)NC(C)=O)cc3)c3ccc([N+](=O)[O-])cc3nc12`, the GI50 [1] is reported as 44.9 µM (inactive), the GI50 [2] is reported as > 88.3 µM (inactive) and the GI50 [3] is reported as 26.2 µM (inactive). The GI50 [4] was 33.9 µM (inactive), the GI50 [5] was 27.7 µM (inactive) and the GI50 [6] was 17.5 µM (inactive). For the same compound, the GI50 [7] was 28.5 µM (inactive), the GI50 [8] was 30.5 µM (inactive) and the GI50 [9] was 33.3 µM (inactive). The GI50 [10] was 56.8 µM (inactive), the GI50 [11] was 26.3 µM (inactive) and the GI50 [12] was 13.8 µM (inactive). For the same compound, the GI50 [13] was > 66.5 µM (inactive), the GI50 [14] was 22 µM (inactive) and the GI50 [15] was 26.2 µM (inactive). For the same compound, the GI50 [16] was 13.1 µM (inactive), the GI50 [17] was 11 µM (inactive) and the GI50 [18] was > 57.1 µM (inactive). For the same compound, the GI50 [19] was 23.7 µM (inactive), the GI50 [20] was 25.1 µM (inactive) and the GI50 [21] was 31.4 µM (inactive). For the same compound, the GI50 [22] was > 45 µM (inactive), the GI50 [23] was 55.5 µM (inactive) and the GI50 [24] was 16.3 µM (inactive). The GI50 [25] was > 48.4 µM (inactive), the GI50 [26] was 21.2 µM (inactive) and the GI50 [27] was 25.9 µM (inactive). The GI50 [28] was 37.2 µM (inactive), the GI50 [29] was 57.1 µM (inactive) and the GI50 [30] was 97.9 µM (inactive). For the same compound, the GI50 [31] was 32.3 µM (inactive), the GI50 [32] was 36.6 µM (inactive) and the GI50 [33] was 97.7 µM (inactive). The GI50 [34] was 11.3 µM (inactive), the GI50 [35] was > 78.2 µM (inactive) and the GI50 [36] was 32.5 µM (inactive). For the same compound, the GI50 [37] was 4.15 µM (inactive), the GI50 [38] was > 100 µM (inactive) and the GI50 [39] was 32.3 µM (inactive). The GI50 [40] was 60.5 µM (inactive), the GI50 [41] was 22.7 µM (inactive) and the GI50 [42] was 36 µM (inactive). The GI50 [43] was 12.4 µM (inactive), the GI50 [44] was 47 µM and the GI50 [45] was 31.6 µM (inactive). For the same compound, the GI50 [46] was 40.6 µM (inactive), the GI50 [47] was 29.2 µM (inactive) and the GI50 [48] was 35.2 µM (inactive). For the same compound, the GI50 [49] was 94.4 µM (inactive), the GI50 [50] was 17.2 µM (inactive) and the GI50 [51] was 22.4 µM (inactive). The GI50 [52] was 39.4 µM (inactive), the GI50 [53] was > 70.3 µM (inactive) and the GI50 [54] was 20.4 µM (inactive). The GI50 [55] was 53.1 µM (inactive), the GI50 [56] was 45.7 µM (inactive) and the GI50 [57] was 49.9 µM (inactive). For the same compound, the GI50 [58] was 8.28 µM (inactive) and the GI50 [59] was 65.6 µM (inactive).
